{"source": "patent US6440978B2", "about": "“Therapeutic agent for dermatitis” (Nippon Zoki Pharmaceutical Co., Ltd., priority 2000, dated 2002)", "key": {"[1]": {"test_system": "antigen-induced flare-up reaction in a mouse", "experiment": "Suppressive action against antigen-induced flare-up reaction in a mouse", "assay_type": "in vivo, BALB/c female mice", "details": "3% ointment", "description": "(§1) Seven week old BALB/c female (SPF) mice of were selected as subjects. According to a method of Tanaka, et al. (Allergy, 46, pages 42-48(1997)), egg white albumin (final concentration: 2 μg/mL) and aluminum hydroxide gel (final concentration: 10 mg/mL) were suspended in physiological saline and 0.5 mL of the suspension was administered to effect intraperitoneal sensitization on the first day of the test. On the 14th day of the test, an additional sensitization was carried out under the same conditions. Further, on the 28th day of the test, 25 μL of egg albumin (a 20 μg/mL solution in physiological saline) was intradermally administered to the right ear of a mouse to induce a swelling reaction.\n(§2) This swelling reaction reached its peak at 4 hours after the challenge by the antigen. Even after 24 to 48 hours, a significant swelling reaction was noted as compared with the control in which antigen was merely challenged (not sensitized). […] On the contrary, the swelling from 24 to 48 hours after the challenge is thought to be the so-called delayed-type swelling reaction accompanied by infiltration of eosinophils, neutrophils and lymphocytes. In addition, a flare-up reaction having a peak at 24 hours after the challenge appeared on the ear of the antigen-induced site. Like swelling, flare-up is an important symptom of inflammation. Although the mechanism of the flare-up reaction is ambiguous, it may be a flare-up reaction of a delayed type in view of the time course of its expression. As such, this model animal in which the inflammation of both immediate and delayed types are induced is appropriate as a model animal for atopic dermatitis. In the following experiment, the effectiveness of the therapeutic agent for dermatitis according to the present invention was tested using the said model animal.\nEach of a vehicle (control) and an agent for the test (the therapeutic agent for dermatitis according to the present invention or a positive control) was applied to the antigen-induced site (right auricle) of a mouse to induce a swelling reaction in accordance with Example 2 at 2 hours before and 4 hours after the challenge. The right ear was observed by naked eye and the degree of flare-up was scored according to the following standard:\n1: in such a degree that a flare-up was confirmed, the color is clear red or pale red and the size was small\n2: between score 3 and score 1\n3: color of the flare-up was clearly red and the size of the flare-up was big"}, "[2]": {"test_system": "antigen-induced swelling reaction in a mouse ear", "experiment": "Suppressive action against antigen-induced swelling reaction in a mouse ear", "assay_type": "in vivo, BALB/c female mice", "description": "as §1, §2\nEach of a vehicle (control) and a test agent (containing the compound of the present invention or a positive control) was applied to the antigen-induced site (right auricle) of a mouse. A swelling reaction was induced in accordance with Example 2 at 2 hours before and 4 hours after the challenge. After the challenge, the thickness of the swelling induced ear was measured by a Dial Thickness Gauge (manufactured by Ozaki Seisakusho). The intensity of the reaction was expressed in terms of an increase in the auricle thickness by deducting the thickness (early value) measured before the challenge from the thickness of the swelling induced ear. The suppression rate of the test drug for ear swelling was calculated by the following formula:\nSuppression Rate (%)=100 ×[(Ear Thickness Increase of Vehicle-Only-Control)—(Ear Thickness Increase of the Test Group)]/[(Ear Thickness Increase of the Vehicle-Only-Control)—(Ear Thickness Increase of the Challenge-Only-Group)]"}, "ear of a normal mouse": {"test_system": "ear of a normal mouse", "experiment": "Influence of repeated application on the ear thickness of a normal mouse", "assay_type": "in vivo", "details": "nine times in total, 2 hours after final application", "description": "The therapeutic agent for dermatitis according to the present invention or the positive control (steroid preparation) was applied twice daily to the right ear of a normal mouse for a total of nine times and, 2 hours after the final application, the thickness of the ear was measured."}, "[3]": {"target": "T1, phosphodiesterase type II (PDE II) (Homo sapiens, UniProt O00408)", "T1 construct": "phosphodiesterase type II (PDE II) partially purified from human platelets; from tissue; host or cells: human platelets", "T1 sequence (O00408 whole entry)": "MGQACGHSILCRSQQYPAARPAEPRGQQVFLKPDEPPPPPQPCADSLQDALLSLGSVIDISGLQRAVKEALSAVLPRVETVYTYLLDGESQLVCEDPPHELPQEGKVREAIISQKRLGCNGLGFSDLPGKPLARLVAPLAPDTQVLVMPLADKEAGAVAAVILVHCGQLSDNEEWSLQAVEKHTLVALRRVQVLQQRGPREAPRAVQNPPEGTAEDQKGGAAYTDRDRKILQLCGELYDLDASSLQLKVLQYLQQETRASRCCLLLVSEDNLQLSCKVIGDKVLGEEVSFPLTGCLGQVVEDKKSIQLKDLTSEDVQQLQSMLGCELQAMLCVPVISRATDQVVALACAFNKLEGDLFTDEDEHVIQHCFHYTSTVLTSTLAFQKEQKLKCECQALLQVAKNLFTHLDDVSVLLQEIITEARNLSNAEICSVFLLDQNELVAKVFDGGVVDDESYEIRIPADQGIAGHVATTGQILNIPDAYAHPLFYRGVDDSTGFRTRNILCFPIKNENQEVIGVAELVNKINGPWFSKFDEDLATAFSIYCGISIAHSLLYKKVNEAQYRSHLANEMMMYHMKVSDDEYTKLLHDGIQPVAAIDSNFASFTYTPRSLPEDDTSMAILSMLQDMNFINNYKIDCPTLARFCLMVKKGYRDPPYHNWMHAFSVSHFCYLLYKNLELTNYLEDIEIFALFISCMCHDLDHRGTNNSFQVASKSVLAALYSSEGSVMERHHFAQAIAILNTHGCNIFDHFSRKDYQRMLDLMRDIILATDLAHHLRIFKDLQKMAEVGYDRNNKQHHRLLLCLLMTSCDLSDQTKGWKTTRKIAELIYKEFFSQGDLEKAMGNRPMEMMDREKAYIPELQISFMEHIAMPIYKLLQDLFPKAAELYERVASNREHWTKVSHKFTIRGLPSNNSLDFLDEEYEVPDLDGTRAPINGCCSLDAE", "experiment": "Inhibitory action against phosphodiesterase type II", "assay_type": "biochemical", "details": "100 μM; PDE II from human platelets", "excerpt": "(§3) The inhibitory action of the compounds of the present invention against activities of various phosphodiesterase (PDE) isozymes were investigated using the conventional method. Each of the inhibitory action of the compounds of the present invention on the activities of phosphodiesterase type II (PDE II) partially purified from human platelets, phosphodiesterase type III […] partially purified from human platelets, phosphodiesterase type IV (PDE IV) partially purified from human U937 promonocytic leukemia cells and phosphodiesterase type V (PDE V) partially purified from human platelets were measured."}, "[4]": {"test_system": "guinea pig eosinophils in the abdominal cavity", "experiment": "Suppression of LTB4-induced chemotaxis of guinea pig eosinophils (modified Boyden chamber)", "assay_type": "cell-based, Hartley male guinea pigs", "details": "Cavia porcellus, Eosinophil; chemotaxis induced by 10^-7 M LTB4, 37° C., 2 hours; 5 trials", "description": "The suppressive effect of the compounds of the present invention on the leukotriene B4 or LTB4 induced chemotaxis of guinea pig eosinophils in the abdominal cavity were investigated using a modified Boyden chamber method. The guinea pig eosinophils in the abdominal cavity were prepared using Hartley male guinea pigs according to the conventional method. The chemotaxis of the eosinophils was induced by 10^−7 M of leukotriene B4 or LTB4 in 37° C. for 2 hours in the presence or absence of the test drug (the therapeutic agent for dermatitis of the present invention). After the chemotaxis cells were fixed and stained using the Giemsa stain, the number of chemotaxis cells was counted in visual fields of a microscope (×400). The experiments were repeated several times and the suppression rate of the test drug was calculated by the following formula:\nSuppression Rate (%)=100×[(the number of chemotaxis eosinophils in control group)—(the number of chemotaxis eosinophils in the test drug group)]/[(the number of chemotaxis eosinophils in control group)—(the number of spontaneous chemotaxis eosinophils)]\nThe 50% inhibitory concentration (IC50) was calculated from the regression line obtained by the least square method based on the calculated suppression rates."}, "[5]": {"target": "T2, phosphodiesterase type III (Homo sapiens, UniProt Q14432)", "T2 construct": "phosphodiesterase type III […] partially purified from human platelets; from tissue; host or cells: human platelets", "T2 sequence (Q14432 whole entry)": "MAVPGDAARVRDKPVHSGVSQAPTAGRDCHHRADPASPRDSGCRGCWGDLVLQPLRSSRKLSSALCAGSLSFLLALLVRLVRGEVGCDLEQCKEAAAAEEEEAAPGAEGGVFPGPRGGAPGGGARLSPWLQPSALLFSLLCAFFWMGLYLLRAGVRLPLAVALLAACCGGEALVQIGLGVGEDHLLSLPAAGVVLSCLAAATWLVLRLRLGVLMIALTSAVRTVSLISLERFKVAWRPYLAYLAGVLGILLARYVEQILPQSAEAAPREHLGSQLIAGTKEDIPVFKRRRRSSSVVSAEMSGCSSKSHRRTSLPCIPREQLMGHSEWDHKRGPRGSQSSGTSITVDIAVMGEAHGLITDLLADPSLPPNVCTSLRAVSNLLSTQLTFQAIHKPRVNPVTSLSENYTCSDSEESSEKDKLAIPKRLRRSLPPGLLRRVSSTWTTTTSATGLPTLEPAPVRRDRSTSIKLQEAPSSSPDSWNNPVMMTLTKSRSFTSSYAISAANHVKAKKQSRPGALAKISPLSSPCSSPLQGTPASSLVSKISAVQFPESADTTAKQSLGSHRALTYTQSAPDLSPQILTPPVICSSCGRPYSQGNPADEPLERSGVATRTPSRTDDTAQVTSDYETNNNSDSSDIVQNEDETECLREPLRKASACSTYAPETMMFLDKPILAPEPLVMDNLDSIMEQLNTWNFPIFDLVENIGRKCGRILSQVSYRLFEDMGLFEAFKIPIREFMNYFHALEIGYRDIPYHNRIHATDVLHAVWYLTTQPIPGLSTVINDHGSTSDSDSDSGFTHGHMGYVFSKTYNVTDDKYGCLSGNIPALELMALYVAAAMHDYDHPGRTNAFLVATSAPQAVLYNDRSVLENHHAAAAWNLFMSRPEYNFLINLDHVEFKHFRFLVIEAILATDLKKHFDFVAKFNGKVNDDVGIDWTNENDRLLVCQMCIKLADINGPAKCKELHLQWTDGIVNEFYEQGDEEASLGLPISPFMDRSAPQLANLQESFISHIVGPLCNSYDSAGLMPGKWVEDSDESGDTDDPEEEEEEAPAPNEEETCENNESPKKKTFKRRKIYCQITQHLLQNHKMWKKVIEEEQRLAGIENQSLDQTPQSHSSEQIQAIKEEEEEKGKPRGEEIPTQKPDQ", "experiment": "Inhibitory action against phosphodiesterase type III", "assay_type": "biochemical", "details": "100 μM; PDE III from human platelets", "excerpt": "as §3"}}}
{"molecule": "Nc1ccc2c(=O)n(Cc3ccccc3)c(=O)n(-c3ccccc3)c2n1", "note": "[Compound 1, 7-amino-3-benzyl-1,2,3,4-tetrahydro-1-phenylpyrido[2,3-d]pyrimidin-2,4-dione]", "values": [{"measurement": "Suppression Rate of flare-up score at 4 hr after Challenge", "setting": "[1]; 4 hr after challenge", "result": "(0.0%)"}, {"measurement": "Flare-up Score at 4 hr after Challenge", "setting": "[1]; 4 hr after challenge, score 0-3", "result": "0.8 ± 0"}, {"measurement": "Suppression Rate of flare-up score at 24 hr after Challenge", "setting": "[1]; 24 hr after challenge", "result": "(32.0%)"}, {"measurement": "Flare-up Score at 24 hr after Challenge", "setting": "[1]; 24 hr after challenge, score 0-3", "result": "1.7 ± 0.2"}, {"measurement": "Ear Thickness Increase at 1 hr after Challenge", "setting": "[2]; Table 1, 1% ointment", "result": "6.3 ± 1.4", "unit": "× 0.01 mm"}, {"measurement": "Suppression Rate of ear thickness increase at 1 hr after Challenge", "setting": "[2]; Table 1, 1% ointment", "result": "(106.1%)"}, {"measurement": "Ear Thickness Increase at 4 hr after Challenge", "setting": "[2]; Table 1, 1% ointment", "result": "18.0 ± 0.9", "unit": "× 0.01 mm"}, {"measurement": "Suppression Rate of ear thickness increase at 4 hr after Challenge", "setting": "[2]; Table 1, 1% ointment", "result": "(34.0%)"}, {"measurement": "Ear Thickness Increase at 8 hr after Challenge", "setting": "[2]; Table 1, 1% ointment", "result": "16.0 ± 0.4", "unit": "× 0.01 mm"}, {"measurement": "Suppression Rate of ear thickness increase at 8 hr after Challenge", "setting": "[2]; Table 1, 1% ointment", "result": "(26.0%)"}, {"measurement": "Ear Thickness Increase at 24 hr after Challenge", "setting": "[2]; Table 1, 1% ointment", "result": "9.3 ± 1.1", "unit": "× 0.01 mm"}, {"measurement": "Suppression Rate of ear thickness increase at 24 hr after Challenge", "setting": "[2]; Table 1, 1% ointment", "result": "(51.3%)"}, {"measurement": "Ear Thickness Increase at 48 hr after Challenge", "setting": "[2]; Table 1, 1% ointment", "result": "6.8 ± 1.0", "unit": "× 0.01 mm"}, {"measurement": "Suppression Rate of ear thickness increase at 48 hr after Challenge", "setting": "[2]; Table 1, 1% ointment", "result": "(47.8%)"}, {"measurement": "Ear Thickness Increase at 1 hr after Challenge", "setting": "[2]; Table 1, 3% ointment", "result": "5.3 ± 0.5", "unit": "× 0.01 mm"}, {"measurement": "Suppression Rate of ear thickness increase at 1 hr after Challenge", "setting": "[2]; Table 1, 3% ointment", "result": "(136.4%)"}, {"measurement": "Ear Thickness Increase at 4 hr after Challenge", "setting": "[2]; Table 1, 3% ointment", "result": "2.3 ± 0.9", "unit": "× 0.01 mm"}, {"measurement": "Suppression Rate of ear thickness increase at 4 hr after Challenge", "setting": "[2]; Table 1, 3% ointment", "result": "(18.4%)"}, {"measurement": "Ear Thickness Increase at 8 hr after Challenge", "setting": "[2]; Table 1, 3% ointment", "result": "15.8 ± 1.4", "unit": "× 0.01 mm"}, {"measurement": "Suppression Rate of ear thickness increase at 8 hr after Challenge", "setting": "[2]; Table 1, 3% ointment", "result": "(27.2%)"}, {"measurement": "Ear Thickness Increase at 24 hr after Challenge", "setting": "[2]; Table 1, 3% ointment", "result": "7.8 ± 0.9", "unit": "× 0.01 mm"}, {"measurement": "Suppression Rate of ear thickness increase at 24 hr after Challenge", "setting": "[2]; Table 1, 3% ointment", "result": "(61.3%)"}, {"measurement": "Ear Thickness Increase at 48 hr after Challenge", "setting": "[2]; Table 1, 3% ointment", "result": "5.3 ± 0.9", "unit": "× 0.01 mm"}, {"measurement": "Suppression Rate of ear thickness increase at 48 hr after Challenge", "setting": "[2]; Table 1, 3% ointment", "result": "(64.1%)"}, {"measurement": "Ear Thickness Increase at 4 hr after Challenge", "setting": "[2]; Table 2, 0.3% ointment", "result": "20.3 ± 2.4", "unit": "× 0.01 mm"}, {"measurement": "Suppression Rate of ear thickness increase at 4 hr after Challenge", "setting": "[2]; Table 2, 0.3% ointment", "result": "(18.7%)"}, {"measurement": "Ear Thickess Increase at 24 hr after Challenge", "setting": "[2]; Table 2, 0.3% ointment", "result": "13.5 ± 1.3", "unit": "× 0.01 mm"}, {"measurement": "Suppression Rate of ear thickness increase at 24 hr after Challenge", "setting": "[2]; Table 2, 0.3% ointment", "result": "(19.4%)"}, {"measurement": "Ear Thickness Increase at 4 hr after Challenge", "setting": "[2]; Table 2, 3% ointment", "result": "13.3 ± 0.3", "unit": "× 0.01 mm"}, {"measurement": "Suppression Rate of ear thickness increase at 4 hr after Challenge", "setting": "[2]; Table 2, 3% ointment", "result": "(49.8%)"}, {"measurement": "Ear Thickess Increase at 24 hr after Challenge", "setting": "[2]; Table 2, 3% ointment", "result": "9.3 ± 1.7", "unit": "× 0.01 mm"}, {"measurement": "Suppression Rate of ear thickness increase at 24 hr after Challenge", "setting": "[2]; Table 2, 3% ointment", "result": "(46.5%)"}, {"measurement": "Ear Thickness", "setting": "ear of a normal mouse; 3% ointment applied twice daily", "result": "22.3 ± 0.2", "unit": "× 0.01 mm"}, {"measurement": "Ear Thickness", "setting": "ear of a normal mouse; 10% ointment applied twice daily", "result": "22.3 ± 0.5", "unit": "× 0.01 mm"}, {"measurement": "suppression activity against PDE II", "setting": "[3]", "result": 6, "unit": "%"}, {"measurement": "IC50", "setting": "[4]", "result": "1900 ± 400", "unit": "nM"}, {"measurement": "suppression activity against PDE III", "setting": "[5]", "result": 22, "unit": "%"}]}
